The values that follow come from the NIST ThermoML archive (doi:10.1016/j.fluid.2005.08.021).

SMILES strings stand for the structures. ± gives the expanded uncertainty stated by the source.

For the data set the following is noted: Crystal; visual observation.
Consider `Oc1ccc(Cl)cc1` [4-chlorophenol], for which the Normal melting temperature amounted to 42.5 ± 0.4 °C. For `Oc1cccc(Cl)c1` [3-chlorophenol], the Normal melting temperature came to 32.4 ± 0.4 °C.

With `CC(C)(C)O` [2-methylpropan-2-ol], the Normal melting temperature worked out at 25.6 ± 0.4 °C.
